Source: patent US20240391930A1, “SPIROCYCLIC BICYCLIC MODULATORS OF CHOLESTEROL BIOSYNTHESIS AND THEIR USE FOR PROMOTING REMYELINATION” (GENENTECH, INC., priority 2021, published 2024)

What was measured:
[1] = molecular target: T1, human emopamil binding protein and human 7-dehydrocholesterol reductase (hEBP-DHCR7) (Homo sapiens, UniProt Q15125); test: hEBP-DHCR7 radioligand filtration binding assay; settings: membranes of HEK293 co-expressing hEBP and DHCR7; [3H] 2-thia-6-azaspiro[3.4]octane radioligand; 8 doses 0.06 to 5000 nM
T1 construct: expressed in transfected cells; host or cells: HEK 293 cells, transient transfection with 2 DNA constructs
T1 sequence (Q15125 whole entry): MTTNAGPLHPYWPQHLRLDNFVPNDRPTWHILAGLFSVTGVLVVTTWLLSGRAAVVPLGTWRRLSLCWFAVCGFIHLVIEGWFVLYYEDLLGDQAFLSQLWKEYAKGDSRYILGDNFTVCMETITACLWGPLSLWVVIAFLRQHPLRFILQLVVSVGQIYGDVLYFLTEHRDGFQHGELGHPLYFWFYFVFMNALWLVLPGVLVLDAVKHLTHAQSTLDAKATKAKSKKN
Procedure, shortened: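 Membranes from HEK293 cells transiently co-expressing human EBP and DHCR7 (10 μg/well) incubated 3 h at 22 °C with tritiated 2-thia-6-azaspiro[3.4]octane dioxide radioligand (25 nM stock addition) and compound at 0.06–5000 nM final. Bound ligand collected on PEI-treated GF/B filters, scintillation-counted. IC50 by Hill fit; reported as Ki.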

EpiSC-derived OPCs = test: In vitro phenotypic screening of OPCs (MBP high-content imaging); format: cell-based; settings: Mus musculus, 72 h; percentage of MBP-positive oligodendrocytes, 3 days, 0.5 nM to 1000 nM; read-out: OPC EC50
Procedure, shortened: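 Mouse EpiSC-derived OPCs seeded at 150,000/cm^2 without growth factors, treated 3 days at 37° C with 8-point doses from 1000 nM to 0.5 nM. Fixed, MBP immunostained with DAPI; high-content imaging gives percentage MBP-positive oligodendrocytes.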

| Ki [1] [nM] | EC50 (EpiSC-derived OPCs) [nM] | Compound |
| --- | --- | --- |
| 5.91 | 0.9 | CC(C)n1nc(-c2cccc(C(F)(F)F)c2)cc1[C@H]1[C@@H]2C[C@@H](N3CCC4(C3)CS(=O)(=O)C4)C[C@@H]21 (single isomer, unassigned) [Compound 2] |
| 14.5 | 14 | CC(C)n1nc(-c2cncc(C(F)(F)F)c2)cc1[C@H]1[C@@H]2C[C@H](N3CCC4(C3)CS(=O)(=O)C4)C[C@@H]21 (single isomer, unassigned) [Compound 4] |
| 20.1 | 3.8 | CC(C)n1nc(-c2cncc(C(F)(F)F)c2)cc1[C@H]1[C@@H]2C[C@H](N3CC[C@@]4(CCS(=O)(=O)C4)C3)C[C@@H]21 (single isomer, unassigned) [Compound 9*] |
| 13.2 | 14 | CC(C)n1nc(-c2cccc(C(F)(F)F)n2)cc1[C@H]1[C@@H]2C[C@@H](N3CCC4(C3)CS(=O)(=O)C4)C[C@@H]21 (single isomer, unassigned) [Compound 11] |
| 12 | 9.7 | CC(C)n1nc(-c2cccc(C(F)(F)F)n2)cc1[C@H]1[C@@H]2C[C@H](N3CCC4(C3)CS(=O)(=O)C4)C[C@@H]21 (single isomer, unassigned) [Compound 12] |
| 21 | 24 | CC(C)n1nc(-c2cncc(C(F)(F)F)c2)nc1[C@H]1[C@@H]2C[C@@H](N3CCC4(C3)CS(=O)(=O)C4)C[C@@H]21 (single isomer, unassigned) [Compound 16] |
| 116 | 420 | CC(C)n1nc(-c2cncc(C(F)(F)F)c2)nc1[C@H]1[C@@H]2C[C@H](N3CCC4(C3)CS(=O)(=O)C4)C[C@@H]21 (single isomer, unassigned) [Compound 17] |
| 17 | 15 | CC(C)n1nc(-c2ccnc(C(F)(F)F)c2)cc1[C@H]1[C@@H]2C[C@@H](N3CCC4(C3)CS(=O)(=O)C4)C[C@@H]21 (single isomer, unassigned) [Compound 18] |
| 9.6 | 13 | CC(C)n1nc(-c2ccnc(C(F)(F)F)c2)cc1[C@H]1[C@@H]2C[C@H](N3CCC4(C3)CS(=O)(=O)C4)C[C@@H]21 (single isomer, unassigned) [Compound 19] |
| 48.9 | 39 | CC(C)n1nc(-c2cc(C(F)(F)F)ccn2)cc1[C@H]1[C@@H]2C[C@@H](N3CCC4(C3)CS(=O)(=O)C4)C[C@@H]21 (single isomer, unassigned) [Compound 20] |
| 17.1 | 6.6 | CC(C)n1nc(-c2cc(C(F)(F)F)ccn2)cc1[C@H]1[C@@H]2C[C@H](N3CCC4(C3)CS(=O)(=O)C4)C[C@@H]21 (single isomer, unassigned) [Compound 21] |
| 12.4 | 53 | CC(C)n1nc(C(F)(F)F)cc1[C@H]1[C@@H]2C[C@@H](N3CCC4(C3)CS(=O)(=O)C4)C[C@@H]21 (single isomer, unassigned) [Compound 22] |
| 12.4 | 53 | CC(C)n1nc(C(F)(F)F)cc1[C@H]1[C@@H]2C[C@H](N3CCC4(C3)CS(=O)(=O)C4)C[C@@H]21 (single isomer, unassigned) [Compound 23] |
| 19.9 | 9.3 | CCn1nc(-c2cncc(C(F)(F)F)c2)cc1[C@H]1[C@@H]2C[C@@H](N3CCC4(C3)CS(=O)(=O)C4)C[C@@H]21 (single isomer, unassigned) [Compound 24] |
| 14.6 | 4.2 | CCn1nc(-c2cncc(C(F)(F)F)c2)cc1[C@H]1[C@@H]2C[C@H](N3CCC4(C3)CS(=O)(=O)C4)C[C@@H]21 (single isomer, unassigned) [Compound 25] |
| 41 | 4.9 | CC(C)n1nc(-c2cncc(C(F)(F)F)c2)cc1[C@H]1[C@@H]2C[C@@H](N3CCC4(CC3)CS(=O)(=O)C4)C[C@@H]21 (single isomer, unassigned) [Compound 38] |
| 18.4 | 15 | CC(C)n1nc(-c2cncc(C(F)(F)F)c2)cc1[C@H]1[C@@H]2C[C@H](N3CCC4(CC3)CS(=O)(=O)C4)C[C@@H]21 (single isomer, unassigned) [Compound 40] |
| 175 | 1.7 | CC(C)n1nc(-c2cccc(C(F)(F)F)n2)cc1[C@H]1[C@@H]2C[C@@H](N3CCC4(CC3)CS(=O)(=O)C4)C[C@@H]21 (single isomer, unassigned) [Compound 47] |
| 12.5 | 15 | CC(C)n1nc(-c2cccc(C(F)(F)F)n2)cc1[C@H]1[C@@H]2C[C@H](N3CCC4(CC3)CS(=O)(=O)C4)C[C@@H]21 (single isomer, unassigned) [Compound 48] |
| 64.9 | 4.6 | CC(C)n1nc(-c2ccnc(C(F)(F)F)n2)cc1[C@H]1[C@@H]2C[C@@H](N3CCC4(CC3)CS(=O)(=O)C4)C[C@@H]21 (single isomer, unassigned) [Compound 49] |
| 49 | 69 | CC(C)n1nc(-c2ccnc(C(F)(F)F)n2)cc1[C@H]1[C@@H]2C[C@H](N3CCC4(CC3)CS(=O)(=O)C4)C[C@@H]21 (single isomer, unassigned) [Compound 50] |
| 54 | 300 | CC(C)n1nc(-c2cncc(C(F)(F)F)c2)cc1[C@H]1[C@@H]2C[C@@H](N3CC4(C3)CS(=O)(=O)C4)C[C@@H]21 (single isomer, unassigned) [Compound 98*] |
| 48 | 300 | CC(C)n1nc(-c2cncc(C(F)(F)F)c2)cc1[C@H]1[C@@H]2C[C@H](N3CC4(C3)CS(=O)(=O)C4)C[C@@H]21 (single isomer, unassigned) [Compound 99*] |
| 43 | 8 | CC(C)n1nc(-c2ccc(C(F)(F)F)cc2)cc1[C@H]1[C@@H]2C[C@H](N3CCC4(C3)CS(=O)(=O)C4)C[C@@H]21 [Compound 5, 6-((1R,3r,5S,6r)-6-(1-Isopropyl-3-(4-(trifluoromethyl)phenyl)-1H-pyrazol-5-yl)bicyclo[3.1.0]hexan-3-yl)-2-thia-6-azaspiro[3.4]octane 2,2-dioxide] |
| 18.1 | 200 | CC(C)n1nc(-c2cnc(C(F)(F)F)nc2)cc1[C@H]1[C@@H]2C[C@H](N3CCC4(C3)CS(=O)(=O)C4)C[C@@H]21 [Compound 6, 6-((1R,3r,5S,6r)-6-(1-Isopropyl-3-(2-(trifluoromethyl)pyrimidin-5-yl)-1H-pyrazol-5-yl)bicyclo[3.1.0]hexan-3-yl)-2-thia-6-azaspiro[3.4]octane 2,2-dioxide] |
| 20 | 6.6 | CC(C)n1nc(-c2ccnc(C(F)(F)F)n2)cc1[C@H]1[C@@H]2C[C@H](N3CCC4(C3)CS(=O)(=O)C4)C[C@@H]21 [Compound 15, 6-((1R,3r,5S,6r)-6-(1-Isopropyl-3-(2-(trifluoromethyl)pyrimidin-4-yl)-1H-pyrazol-5-yl)bicyclo[3.1.0]hexan-3-yl)-2-thia-6-azaspiro[3.4]octane 2,2-dioxide] |
| 24.6 | 39 | CC(C)n1nc(-c2ccnc(C(F)(F)F)n2)cc1[C@H]1[C@@H]2C[C@@H](N3CCC4(C3)CS(=O)(=O)C4)C[C@@H]21 [Compound 28, 6-((1R,3s,5S,6r)-6-(1-isopropyl-3-(2-(trifluoromethyl)pyrimidin-4-yl)-1H-pyrazol-5-yl)bicyclo[3.1.0]hexan-3-yl)-2-thia-6-azaspiro[3.4]octane 2,2-dioxide] |
| 19.2 | 30 | C=C(c1cc([C@H]2[C@@H]3C[C@H](N4CCC5(C4)CS(=O)(=O)C5)C[C@@H]32)n(C(C)C)n1)C(F)(F)F [Compound 31, 6-((1R,3r,5S,6r)-6-(1-Isopropyl-3-(3,3,3-trifluoroprop-1-en-2-yl)-1H-pyrazol-5-yl)bicyclo[3.1.0]hexan-3-yl)-2-thia-6-azaspiro[3.4]octane 2,2-dioxide] |
| 13.5 | 29 | CC(C)n1nc(C2(C(F)(F)F)CC2)cc1[C@H]1[C@@H]2C[C@H](N3CCC4(C3)CS(=O)(=O)C4)C[C@@H]21 [Compound 32, 6-((1R,3r,5S,6r)-6-(1-Isopropyl-3-(1-(trifluoromethyl)cyclopropyl)-1H-pyrazol-5-yl)bicyclo[3.1.0]hexan-3-yl)-2-thia-6-azaspiro[3.4]octane 2,2-dioxide] |
